Data taken from ChEMBL document CHEMBL1201862, “PubChem BioAssay data set” (2004).
Calls of active or inactive are those of the source.

Legend:
[1] = HEp-2 cell cytotoxicity, dose response, cytotoxicity control for RSV inhibitor project, HTS (AID 2410); assay type: functional; conditions: human respiratory syncytial virus
[2] = target: T1, Hepatocyte nuclear factor 4-alpha (Homo sapiens, UniProt P41235); assay type: functional, cell-based;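 note: biochemical luminescence-based dose-response counterscreen measuring inhibition of HNF4 dimerization, run alongside a screen for blockers of ABHD5–perilipin-5 interaction; split luciferase complementation of HNF4 fusion proteins in cell lysate measuring dimerization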
T1 sequence (P41235 whole entry): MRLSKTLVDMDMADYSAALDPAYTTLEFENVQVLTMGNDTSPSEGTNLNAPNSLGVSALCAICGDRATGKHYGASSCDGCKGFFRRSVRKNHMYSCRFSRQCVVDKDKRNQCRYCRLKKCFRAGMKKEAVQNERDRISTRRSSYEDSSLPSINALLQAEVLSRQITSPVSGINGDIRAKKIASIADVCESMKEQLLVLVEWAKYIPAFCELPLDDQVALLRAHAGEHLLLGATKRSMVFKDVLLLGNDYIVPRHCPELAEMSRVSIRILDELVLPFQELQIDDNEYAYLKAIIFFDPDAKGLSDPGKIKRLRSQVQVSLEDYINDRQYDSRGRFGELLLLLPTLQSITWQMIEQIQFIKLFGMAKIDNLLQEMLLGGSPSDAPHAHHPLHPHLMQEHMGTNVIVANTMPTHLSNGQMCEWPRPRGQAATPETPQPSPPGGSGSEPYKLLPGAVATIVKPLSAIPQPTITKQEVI

[3] = cytotoxicity toward NIH3T3 fibroblasts, dose response, counter-screen, cell-based, ATP luminescence, mouse fibroblasts (AID 2010); assay type: functional;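 note: cells exposed to compound for about 90 hours before reading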
[4] = target: T2, Heat shock factor protein 1 (Mus musculus, UniProt P38532); experiment: inhibition of MG132-induced HSE-luciferase signal, confirmation, cell-based, NIH3T3, luminescence, dose retest (AID 2382); assay type: functional;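 note: NIH3T3 fibroblasts with HSF1-driven luciferase reporter stressed by proteasome inhibitor MG132; luminescence from HSF1-driven luciferase expression after 8 hours of MG132 stress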
T2 sequence (P38532 whole entry): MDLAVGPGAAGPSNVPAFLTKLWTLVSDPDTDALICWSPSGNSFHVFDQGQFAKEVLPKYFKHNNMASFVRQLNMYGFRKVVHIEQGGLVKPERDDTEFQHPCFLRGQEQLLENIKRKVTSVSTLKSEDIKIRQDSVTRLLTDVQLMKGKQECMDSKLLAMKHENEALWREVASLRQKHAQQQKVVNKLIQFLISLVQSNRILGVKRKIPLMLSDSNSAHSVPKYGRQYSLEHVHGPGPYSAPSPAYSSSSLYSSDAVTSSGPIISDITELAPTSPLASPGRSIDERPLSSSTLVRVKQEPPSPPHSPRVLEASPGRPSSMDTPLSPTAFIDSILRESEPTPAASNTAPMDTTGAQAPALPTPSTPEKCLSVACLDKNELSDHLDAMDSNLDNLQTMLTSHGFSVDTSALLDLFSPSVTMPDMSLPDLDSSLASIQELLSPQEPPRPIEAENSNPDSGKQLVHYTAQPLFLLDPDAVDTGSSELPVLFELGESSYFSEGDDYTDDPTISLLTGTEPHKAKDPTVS

[5] = control 3'UTR Renilla luciferase suppression, dose response, counter-screen for Shn3 inhibitor project, cell-based, Clone20-Shn3RL, cherry-picked (AID 624133); assay type: functional
[6] = non-specific cell cytotoxicity, dose response, cytotoxicity control for PAX8 inhibitor project, plate reader, dry powder samples (AID 743021); assay type: functional, cell-based
[7] = Shn3 3'UTR reporter inhibitors, dose response, cell-based, Clone20 osteoblasts, firefly luciferase, cherry-picked (AID 624132); assay type: functional;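 note: firefly luciferase luminescence from reporter carrying the Shn3 3'UTR in osteoblasts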
[8] = C. albicans growth with fluconazole, confirmation, fluorescence, retest (AID 2467); assay type: functional, cell-based
[9] = inhibitors of intracellular T. cruzi replication, confirmation, NIH3T3 host cells, beta-gal luminescence (AID 2044); assay type: functional, cell-based;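 note: intracellular parasites grown in NIH/3T3 mouse fibroblasts as host cells; luminescent beta-galactosidase reporter signal from transgenic T. cruzi replicating inside host cells; inhibitors lower the luminescence signal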
Paired box protein Pax-8 = Paired box protein Pax-8 (Homo sapiens, UniProt Q06710); experiment: inhibitors of PAX8-driven TPO luciferase reporter, dose response, RMG-I cells, cherry-pick (AID 687027); assay type: functional, cell-based;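 note: luciferase reporter driven by Pax8 target thyroperoxidase promoter measured by SteadyGlo luminescence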
[10] = NIH-3T3 fibroblast cytotoxicity, dose response, cytotoxicity control, cell-based, fluorescence, Alamar Blue, secondary assay (AID 2327); assay type: functional;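 note: NIH-3T3 mouse fibroblasts cultured with fluconazole at 8 µg/mL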
[11] = HepG2 cell cytotoxicity, dose response, cytotoxicity control for Shn3 inhibitor project, CellTiter-Glo, cherry-picked (AID 624134); assay type: functional, cell-based
[12] = target: T3, Polyadenylate-binding protein 1 (Homo sapiens, UniProt P11940); experiment: PABP1 MLLE–PAM2 binding inhibitor potency, dose response, biochemical, fluorescence polarization, FITC-PAM2 peptide (AID 602259); assay type: functional; conditions: read-out: IC50_Mean
[13] = target: T4, Replicative DNA helicase DnaB (Mycobacterium tuberculosis, UniProt P9WMR3); experiment: DnaB intein splicing inhibitors, dose response, biochemical, cell-free fluorescence (AID 449749); assay type: functional
T4 sequence (P9WMR3 whole entry): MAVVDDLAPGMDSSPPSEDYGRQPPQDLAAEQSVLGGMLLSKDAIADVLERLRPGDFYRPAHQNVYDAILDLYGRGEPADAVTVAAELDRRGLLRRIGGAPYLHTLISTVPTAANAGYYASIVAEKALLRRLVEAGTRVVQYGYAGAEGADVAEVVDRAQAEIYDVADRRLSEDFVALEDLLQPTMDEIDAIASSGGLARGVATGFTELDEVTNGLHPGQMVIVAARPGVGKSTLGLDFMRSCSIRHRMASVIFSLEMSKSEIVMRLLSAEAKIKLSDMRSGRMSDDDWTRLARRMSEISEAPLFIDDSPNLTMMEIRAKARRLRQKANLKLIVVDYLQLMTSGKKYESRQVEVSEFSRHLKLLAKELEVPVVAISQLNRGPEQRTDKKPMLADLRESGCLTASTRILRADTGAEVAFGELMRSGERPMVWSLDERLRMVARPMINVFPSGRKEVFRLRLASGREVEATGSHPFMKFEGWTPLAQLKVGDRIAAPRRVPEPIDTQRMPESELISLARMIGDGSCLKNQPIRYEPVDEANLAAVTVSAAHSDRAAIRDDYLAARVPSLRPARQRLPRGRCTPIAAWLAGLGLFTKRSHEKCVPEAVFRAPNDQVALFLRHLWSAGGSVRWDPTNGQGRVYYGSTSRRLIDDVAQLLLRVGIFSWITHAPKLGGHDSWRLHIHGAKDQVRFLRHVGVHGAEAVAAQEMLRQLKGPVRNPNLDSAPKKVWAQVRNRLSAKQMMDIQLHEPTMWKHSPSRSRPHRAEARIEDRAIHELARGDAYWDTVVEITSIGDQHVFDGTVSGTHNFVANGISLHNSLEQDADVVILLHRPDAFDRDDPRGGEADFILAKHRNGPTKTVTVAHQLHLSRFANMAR

Protein RecA = target: T5, Protein RecA (Mycobacterium tuberculosis, UniProt P9WHJ3); experiment: Fluorescence Cell-Free Homogeneous Dose Retest to Identify Inhibitors of RecA-Intein Splicing Activity. [Related pubchem assays (depositor defined):AID2097, AID2223, AID489010, AID492950]; assay type: functional
T5 sequence (P9WHJ3 whole entry): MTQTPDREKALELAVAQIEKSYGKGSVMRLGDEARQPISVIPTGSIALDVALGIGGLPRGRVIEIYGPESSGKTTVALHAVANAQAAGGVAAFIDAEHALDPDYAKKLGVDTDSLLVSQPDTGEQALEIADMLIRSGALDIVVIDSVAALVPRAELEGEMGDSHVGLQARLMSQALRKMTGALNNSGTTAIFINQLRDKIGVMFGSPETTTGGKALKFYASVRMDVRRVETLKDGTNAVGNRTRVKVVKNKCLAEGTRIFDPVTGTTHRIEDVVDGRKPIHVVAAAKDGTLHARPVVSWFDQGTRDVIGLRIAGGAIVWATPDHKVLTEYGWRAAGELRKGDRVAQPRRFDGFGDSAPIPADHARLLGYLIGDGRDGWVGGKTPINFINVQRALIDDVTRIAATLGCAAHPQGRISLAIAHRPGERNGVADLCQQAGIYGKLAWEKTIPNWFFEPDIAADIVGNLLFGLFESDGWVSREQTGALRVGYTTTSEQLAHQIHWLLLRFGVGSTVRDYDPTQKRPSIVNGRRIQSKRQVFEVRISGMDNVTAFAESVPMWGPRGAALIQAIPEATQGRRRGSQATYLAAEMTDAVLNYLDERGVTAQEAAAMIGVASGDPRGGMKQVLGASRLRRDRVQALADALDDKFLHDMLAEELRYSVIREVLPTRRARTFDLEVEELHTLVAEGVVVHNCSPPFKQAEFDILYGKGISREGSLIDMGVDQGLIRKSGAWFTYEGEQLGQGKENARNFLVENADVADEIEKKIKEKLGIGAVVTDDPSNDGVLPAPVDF

[14] = target: T3, Polyadenylate-binding protein 1; experiment: PABP1 MLLE–PAM2 interaction inhibitors, dose response, miRNA deadenylation inhibitor project, biochemical, fluorescence polarization, Cy5-PAM2 peptide, secondary (AID 602260); assay type: functional; conditions: read-out: IC50_Mean
Genome polyprotein = Genome polyprotein (dengue virus type 2, UniProt P29990); experiment: Dengue-2 NS5 methyltransferase inhibitors, primary screen, biochemical, confirmation dose response (AID 588689); assay type: functional
Vero [15] = experiment: cells; assay type: functional; conditions: Chlorocebus sabaeus
Vero [16] = experiment: cells; assay type: functional, cell-based; conditions: Chlorocebus sabaeus

Chain of Paired box protein Pax-8 (Q06710 whole entry): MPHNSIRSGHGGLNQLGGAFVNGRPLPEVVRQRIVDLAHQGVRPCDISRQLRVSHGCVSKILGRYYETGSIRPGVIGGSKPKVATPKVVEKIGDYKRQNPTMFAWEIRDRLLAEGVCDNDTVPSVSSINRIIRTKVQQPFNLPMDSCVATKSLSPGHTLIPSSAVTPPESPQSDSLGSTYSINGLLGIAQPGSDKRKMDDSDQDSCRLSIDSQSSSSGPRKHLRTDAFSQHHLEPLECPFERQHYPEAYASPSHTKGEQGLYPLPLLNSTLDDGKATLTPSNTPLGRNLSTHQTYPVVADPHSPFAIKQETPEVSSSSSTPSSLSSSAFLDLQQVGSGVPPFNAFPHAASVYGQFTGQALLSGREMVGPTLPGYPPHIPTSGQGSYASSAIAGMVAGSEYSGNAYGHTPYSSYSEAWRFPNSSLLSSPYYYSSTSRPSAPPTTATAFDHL
T3 sequence (P11940 whole entry): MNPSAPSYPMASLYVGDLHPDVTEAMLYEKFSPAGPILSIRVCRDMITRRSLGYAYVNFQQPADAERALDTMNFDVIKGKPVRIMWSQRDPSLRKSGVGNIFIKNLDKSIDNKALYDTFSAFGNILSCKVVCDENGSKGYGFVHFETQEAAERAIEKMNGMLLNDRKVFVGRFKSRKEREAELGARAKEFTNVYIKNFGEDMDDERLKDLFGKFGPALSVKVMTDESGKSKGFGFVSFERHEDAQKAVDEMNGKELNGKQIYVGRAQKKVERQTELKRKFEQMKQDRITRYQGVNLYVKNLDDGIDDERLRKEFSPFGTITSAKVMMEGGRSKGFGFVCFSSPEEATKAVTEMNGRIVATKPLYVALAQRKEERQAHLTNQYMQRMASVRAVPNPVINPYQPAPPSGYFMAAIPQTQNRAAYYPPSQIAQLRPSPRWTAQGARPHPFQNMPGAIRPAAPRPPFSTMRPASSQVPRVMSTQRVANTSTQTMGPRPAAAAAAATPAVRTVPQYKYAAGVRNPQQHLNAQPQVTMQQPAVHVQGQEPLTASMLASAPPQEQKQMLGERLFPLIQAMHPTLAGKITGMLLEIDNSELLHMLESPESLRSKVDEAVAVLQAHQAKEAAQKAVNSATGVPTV
Chain of Genome polyprotein (P29990 2492-3391 limits assumed): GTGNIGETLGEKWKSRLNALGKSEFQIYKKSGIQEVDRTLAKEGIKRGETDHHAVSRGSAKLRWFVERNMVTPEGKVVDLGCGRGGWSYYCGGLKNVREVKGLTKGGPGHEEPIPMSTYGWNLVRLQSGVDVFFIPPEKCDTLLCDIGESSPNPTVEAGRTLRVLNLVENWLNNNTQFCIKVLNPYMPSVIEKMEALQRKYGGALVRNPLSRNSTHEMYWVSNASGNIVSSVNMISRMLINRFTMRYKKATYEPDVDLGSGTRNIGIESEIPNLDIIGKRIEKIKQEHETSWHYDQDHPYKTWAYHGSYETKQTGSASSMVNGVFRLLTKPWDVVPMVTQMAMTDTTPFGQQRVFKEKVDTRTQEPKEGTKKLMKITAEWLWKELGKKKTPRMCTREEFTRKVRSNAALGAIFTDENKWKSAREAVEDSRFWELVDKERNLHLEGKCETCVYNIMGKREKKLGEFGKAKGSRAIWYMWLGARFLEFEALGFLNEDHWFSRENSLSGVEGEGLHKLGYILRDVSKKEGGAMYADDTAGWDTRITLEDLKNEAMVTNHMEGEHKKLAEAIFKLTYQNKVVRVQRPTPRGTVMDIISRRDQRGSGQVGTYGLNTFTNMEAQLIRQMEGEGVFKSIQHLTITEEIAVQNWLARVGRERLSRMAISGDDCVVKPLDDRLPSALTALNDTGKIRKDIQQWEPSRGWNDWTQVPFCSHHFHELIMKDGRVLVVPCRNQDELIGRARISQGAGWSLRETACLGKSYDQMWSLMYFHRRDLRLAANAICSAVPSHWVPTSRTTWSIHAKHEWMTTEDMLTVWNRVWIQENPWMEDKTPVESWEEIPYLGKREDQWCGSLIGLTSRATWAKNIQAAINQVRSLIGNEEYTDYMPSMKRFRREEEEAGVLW

Structure (SMILES): O=C1/C(=C/c2cccnc2)CC/C1=C\c1cccnc1
- CC50 [1]: 27.2 µM (active)
- IC50 [2]: 7.46 µM (active)

Structure (SMILES): Cc1ccc(S(=O)(=O)c2ncccc2[N+](=O)[O-])cc1
- EC50 [3]: 2.85 µM (active)
- EC50 [4]: 3.92 µM (active)
- AC50 [5]: 6.47 µM (active)
- AC50 [6]: 23.6 µM (active)
- AC50 [7]: 1.91 µM (active)
- EC50 [8]: 2.73 µM (active)
- EC50 [9]: 2.96 µM (active)
- AC50 (Paired box protein Pax-8): 8.34 µM (active)
- EC50 [10]: 4.37 µM (inconclusive)
- AC50 [11]: 30.2 µM (active)

Structure (SMILES): CCN(CC)CCC(C)OC(c1ccccc1)c1ccccc1 (stereo not given)
- IC50 [2]: 20.7 µM (inactive)

Structure (SMILES): O=C(O)c1ccccc1Nc1cc(Cl)c2nonc2c1[N+](=O)[O-]
- IC50 [12]: > 66 µM (inactive)
- AC50 [13]: 0.0492 µM (active)
- EC50 (Protein RecA): 1.94 µM (active)
- IC50 [14]: > 66 µM (inactive)

Structure (SMILES): Cc1ccc(C(=O)C2=C(O)C(=O)OC2c2ccc(Cl)cc2)cc1 (stereo not given)
- IC50 (Genome polyprotein): 60.8 µM (active)
- IC50 [2]: 8.81 µM (active)

Structure (SMILES): O=C(CC1S/C(=N\c2cccc3ccccc23)N(Cc2ccccn2)C1=O)Nc1ccccc1Br (stereo not given)
- AC50 [6]: 67.5 µM (active)
- AC50 (Paired box protein Pax-8): 15.4 µM (active)

Structure (SMILES): C#CCN(C[C@@H]1[C@@H](OC(=O)Nc2cccs2)[C@@H](OC(=O)Nc2cccs2)Cn2c(=O)ccc(=O)n21)S(=O)(=O)c1ccc(C)cc1
- CC50 (Vero [15]): > 25 µM (active)
- IC50 [2]: 5.6 µM (active)
- AC50 (Paired box protein Pax-8): 4.22 µM (active)
- IC50 (Vero [16]): 23.3 µM (active)
